Experimental data published in PubChem BioAssay AID1982 (Sanford-Burnham Center for Chemical Genomics, 2009).
Calls of active or inactive are those of the source. How the calls were made is not given here.

Tests used:
Test in all cases: kinase panel binding selectivity, selectivity assay, biochemical, KINOMEscan (AID 1982)
ACVR1B = conditions: KINOMEscan 353-kinase binding panel, qPCR, at 10 µM, active compounds read low
ACVR2B = conditions: KINOMEscan 353-kinase binding panel, qPCR, at 10 µM, active compounds read low
[1] = target: Calcium/calmodulin-dependent protein kinase type II subunit gamma (Homo sapiens) (UniProt Q13555); conditions: KINOMEscan 353-kinase binding panel, qPCR; CAMK2G; at 10 µM; active compounds read low
[2] = target: Cyclin-dependent kinase 2 (Homo sapiens) (UniProt P24941); conditions: KINOMEscan 353-kinase binding panel, qPCR; CDK2; at 10 µM; active compounds read low
DCAMKL2 = conditions: KINOMEscan 353-kinase binding panel, qPCR, at 10 µM, active compounds read low
DDR2 = conditions: KINOMEscan 353-kinase binding panel, qPCR, at 10 µM, active compounds read low
DRAK2 = conditions: KINOMEscan 353-kinase binding panel, qPCR, at 10 µM, active compounds read low
EPHA1 = conditions: KINOMEscan 353-kinase binding panel, qPCR, at 10 µM, active compounds read low
EPHA3 = conditions: KINOMEscan 353-kinase binding panel, qPCR, at 10 µM, active compounds read low
EPHA5 = conditions: KINOMEscan 353-kinase binding panel, qPCR, at 10 µM, active compounds read low
[3] = target: Leukocyte tyrosine kinase receptor (Homo sapiens) (UniProt P29376); conditions: KINOMEscan 353-kinase binding panel, qPCR; LTK; at 10 µM; active compounds read low
[4] = target: MAP kinase-interacting serine/threonine-protein kinase 2 (Homo sapiens) (UniProt Q9HBH9); conditions: KINOMEscan 353-kinase binding panel, qPCR; MKNK2; at 10 µM; active compounds read low
[5] = target: MAP/microtubule affinity-regulating kinase 3 (Homo sapiens) (UniProt P27448); conditions: KINOMEscan 353-kinase binding panel, qPCR; MARK3; at 10 µM; active compounds read low
MERTK = conditions: KINOMEscan 353-kinase binding panel, qPCR, at 10 µM, active compounds read low
MLK3 = conditions: KINOMEscan 353-kinase binding panel, qPCR, at 10 µM, active compounds read low
MRCKB = conditions: KINOMEscan 353-kinase binding panel, qPCR, at 10 µM, active compounds read low
[6] = target: Macrophage colony-stimulating factor 1 receptor (Homo sapiens) (UniProt P07333); conditions: KINOMEscan 353-kinase binding panel, qPCR; CSF1R; at 10 µM; active compounds read low
[7] = target: Mast/stem cell growth factor receptor Kit (Homo sapiens) (UniProt P10721); conditions: KINOMEscan 353-kinase binding panel, qPCR, at 10 µM, active compounds read low
[8] = target: Mitogen-activated protein kinase kinase kinase 20 (Homo sapiens) (UniProt Q9NYL2); conditions: KINOMEscan 353-kinase binding panel, qPCR; ZAK; at 10 µM; active compounds read low
[9] = target: Mitogen-activated protein kinase kinase kinase kinase 4 (Homo sapiens) (UniProt O95819); conditions: KINOMEscan 353-kinase binding panel, qPCR; MAP4K4; at 10 µM; active compounds read low
[10] = target: Mitogen-activated protein kinase kinase kinase kinase 5 (Homo sapiens) (UniProt Q9Y4K4); conditions: KINOMEscan 353-kinase binding panel, qPCR; MAP4K5; at 10 µM; active compounds read low
[11] = target: NT-3 growth factor receptor (Homo sapiens) (UniProt Q16288); conditions: KINOMEscan 353-kinase binding panel, qPCR; TRKC; at 10 µM; active compounds read low
PRKR = conditions: KINOMEscan 353-kinase binding panel, qPCR, at 10 µM, active compounds read low
RIPK1 = conditions: KINOMEscan 353-kinase binding panel, qPCR, at 10 µM, active compounds read low
RIPK2 = conditions: KINOMEscan 353-kinase binding panel, qPCR, at 10 µM, active compounds read low
[12] = target: Rho-associated protein kinase 2 (Homo sapiens) (UniProt O75116); conditions: KINOMEscan 353-kinase binding panel, qPCR; ROCK2; at 10 µM; active compounds read low
[13] = target: Ribosomal protein S6 kinase alpha-5 (Homo sapiens) (UniProt O75582); conditions: KINOMEscan 353-kinase binding panel, qPCR, at 10 µM, active compounds read low
[14] = target: Serine/threonine-protein kinase DCLK1 (Homo sapiens) (UniProt O15075); conditions: KINOMEscan 353-kinase binding panel, qPCR; DCAMKL1; at 10 µM; active compounds read low
[15] = target: Serine/threonine-protein kinase PAK 5 (Homo sapiens) (UniProt Q9P286); conditions: KINOMEscan 353-kinase binding panel, qPCR; PAK7/PAK5; at 10 µM; active compounds read low
[16] = target: Serine/threonine-protein kinase PLK3 (Homo sapiens) (UniProt Q9H4B4); conditions: KINOMEscan 353-kinase binding panel, qPCR, at 10 µM, active compounds read low
TESK1 = conditions: KINOMEscan 353-kinase binding panel, qPCR, at 10 µM, active compounds read low
TNNI3K = conditions: KINOMEscan 353-kinase binding panel, qPCR, at 10 µM, active compounds read low
[17] = target: Tyrosine-protein kinase Yes (Homo sapiens) (UniProt P07947); conditions: KINOMEscan 353-kinase binding panel, qPCR, at 10 µM, active compounds read low

Mast/stem cell growth factor receptor Kit (Homo sapiens), sequence (P10721 whole entry, looked up): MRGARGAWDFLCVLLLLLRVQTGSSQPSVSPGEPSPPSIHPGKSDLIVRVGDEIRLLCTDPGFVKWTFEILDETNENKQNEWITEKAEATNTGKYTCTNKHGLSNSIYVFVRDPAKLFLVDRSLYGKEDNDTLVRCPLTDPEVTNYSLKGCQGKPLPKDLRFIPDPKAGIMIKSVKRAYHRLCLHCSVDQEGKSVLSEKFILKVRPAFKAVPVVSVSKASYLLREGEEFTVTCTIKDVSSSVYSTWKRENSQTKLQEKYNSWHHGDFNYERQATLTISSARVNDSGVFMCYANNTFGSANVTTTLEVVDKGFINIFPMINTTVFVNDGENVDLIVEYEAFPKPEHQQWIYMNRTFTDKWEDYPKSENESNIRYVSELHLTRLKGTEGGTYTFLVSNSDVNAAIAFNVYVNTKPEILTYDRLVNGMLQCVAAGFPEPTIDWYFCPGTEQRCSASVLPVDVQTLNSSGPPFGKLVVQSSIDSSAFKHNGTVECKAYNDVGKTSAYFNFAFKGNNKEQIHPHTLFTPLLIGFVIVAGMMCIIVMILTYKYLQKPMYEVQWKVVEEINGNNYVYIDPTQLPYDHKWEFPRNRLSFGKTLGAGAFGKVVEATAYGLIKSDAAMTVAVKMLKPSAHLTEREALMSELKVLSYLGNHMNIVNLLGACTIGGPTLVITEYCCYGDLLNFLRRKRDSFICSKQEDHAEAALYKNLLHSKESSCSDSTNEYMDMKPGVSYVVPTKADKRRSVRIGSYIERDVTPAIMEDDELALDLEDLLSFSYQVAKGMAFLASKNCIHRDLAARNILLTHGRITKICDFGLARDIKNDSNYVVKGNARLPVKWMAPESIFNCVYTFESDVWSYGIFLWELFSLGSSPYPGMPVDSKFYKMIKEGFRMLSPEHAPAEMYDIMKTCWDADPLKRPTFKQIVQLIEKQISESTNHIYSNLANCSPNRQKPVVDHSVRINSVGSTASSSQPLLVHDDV
Ribosomal protein S6 kinase alpha-5 (Homo sapiens), sequence (O75582 whole entry, looked up): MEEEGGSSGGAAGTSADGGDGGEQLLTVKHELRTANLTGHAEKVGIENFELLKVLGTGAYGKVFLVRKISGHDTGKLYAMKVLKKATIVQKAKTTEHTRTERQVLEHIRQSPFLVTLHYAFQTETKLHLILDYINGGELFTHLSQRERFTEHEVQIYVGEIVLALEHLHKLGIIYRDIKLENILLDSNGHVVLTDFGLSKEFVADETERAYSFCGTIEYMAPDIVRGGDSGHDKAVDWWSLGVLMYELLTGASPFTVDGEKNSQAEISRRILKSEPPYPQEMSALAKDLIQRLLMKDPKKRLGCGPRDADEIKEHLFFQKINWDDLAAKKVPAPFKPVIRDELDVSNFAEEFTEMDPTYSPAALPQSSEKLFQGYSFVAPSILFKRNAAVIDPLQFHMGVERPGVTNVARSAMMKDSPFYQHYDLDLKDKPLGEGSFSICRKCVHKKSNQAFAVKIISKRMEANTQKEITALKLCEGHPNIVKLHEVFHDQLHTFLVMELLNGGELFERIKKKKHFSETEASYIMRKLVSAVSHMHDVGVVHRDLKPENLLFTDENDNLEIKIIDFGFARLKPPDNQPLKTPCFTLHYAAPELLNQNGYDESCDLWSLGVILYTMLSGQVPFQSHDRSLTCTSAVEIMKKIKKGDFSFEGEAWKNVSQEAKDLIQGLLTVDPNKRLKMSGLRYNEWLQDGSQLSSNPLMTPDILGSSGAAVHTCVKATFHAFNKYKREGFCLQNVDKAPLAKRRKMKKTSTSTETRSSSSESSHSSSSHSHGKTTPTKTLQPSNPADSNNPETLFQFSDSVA
Serine/threonine-protein kinase PLK3 (Homo sapiens), sequence (Q9H4B4 whole entry, looked up): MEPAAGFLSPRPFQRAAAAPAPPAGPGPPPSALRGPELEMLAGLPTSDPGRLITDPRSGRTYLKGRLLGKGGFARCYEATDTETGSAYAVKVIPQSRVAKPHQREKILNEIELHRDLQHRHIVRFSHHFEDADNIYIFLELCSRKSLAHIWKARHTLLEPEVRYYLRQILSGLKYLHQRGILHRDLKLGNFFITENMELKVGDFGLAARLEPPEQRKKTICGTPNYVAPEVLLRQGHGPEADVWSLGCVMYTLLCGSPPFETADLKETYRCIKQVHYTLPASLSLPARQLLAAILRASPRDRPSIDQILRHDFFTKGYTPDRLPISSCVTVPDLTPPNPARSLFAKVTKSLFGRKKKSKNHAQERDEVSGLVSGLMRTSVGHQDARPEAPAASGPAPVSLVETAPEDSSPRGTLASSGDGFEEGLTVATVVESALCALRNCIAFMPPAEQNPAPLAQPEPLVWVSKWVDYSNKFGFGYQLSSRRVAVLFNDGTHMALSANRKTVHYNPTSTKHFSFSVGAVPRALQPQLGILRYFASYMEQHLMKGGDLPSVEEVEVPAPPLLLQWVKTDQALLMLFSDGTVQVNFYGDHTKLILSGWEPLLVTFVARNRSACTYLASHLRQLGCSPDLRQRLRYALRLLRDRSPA
Mitogen-activated protein kinase kinase kinase 20 (Homo sapiens), sequence (Q9NYL2 whole entry, looked up): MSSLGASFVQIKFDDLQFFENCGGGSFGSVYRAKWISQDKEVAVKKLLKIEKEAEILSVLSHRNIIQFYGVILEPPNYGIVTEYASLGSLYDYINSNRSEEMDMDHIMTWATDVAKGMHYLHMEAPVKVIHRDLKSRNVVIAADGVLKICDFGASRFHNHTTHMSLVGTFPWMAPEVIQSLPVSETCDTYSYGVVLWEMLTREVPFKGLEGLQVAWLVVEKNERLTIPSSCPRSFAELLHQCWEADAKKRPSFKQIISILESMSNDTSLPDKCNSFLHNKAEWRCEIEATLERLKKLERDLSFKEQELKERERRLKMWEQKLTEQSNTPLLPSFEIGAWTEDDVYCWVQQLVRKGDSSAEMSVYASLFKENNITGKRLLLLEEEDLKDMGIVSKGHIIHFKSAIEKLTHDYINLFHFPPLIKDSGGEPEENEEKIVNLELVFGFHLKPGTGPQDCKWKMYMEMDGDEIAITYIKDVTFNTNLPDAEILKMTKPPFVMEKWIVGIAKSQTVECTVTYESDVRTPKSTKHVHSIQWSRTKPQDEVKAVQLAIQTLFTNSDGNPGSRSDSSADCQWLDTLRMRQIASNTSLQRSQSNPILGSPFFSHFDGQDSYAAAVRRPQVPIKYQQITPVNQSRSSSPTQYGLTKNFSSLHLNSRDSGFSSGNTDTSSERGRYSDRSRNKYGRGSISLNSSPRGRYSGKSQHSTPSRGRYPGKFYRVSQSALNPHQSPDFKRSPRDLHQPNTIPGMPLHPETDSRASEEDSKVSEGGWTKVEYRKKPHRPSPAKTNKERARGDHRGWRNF
Macrophage colony-stimulating factor 1 receptor (Homo sapiens), sequence (P07333 whole entry, looked up): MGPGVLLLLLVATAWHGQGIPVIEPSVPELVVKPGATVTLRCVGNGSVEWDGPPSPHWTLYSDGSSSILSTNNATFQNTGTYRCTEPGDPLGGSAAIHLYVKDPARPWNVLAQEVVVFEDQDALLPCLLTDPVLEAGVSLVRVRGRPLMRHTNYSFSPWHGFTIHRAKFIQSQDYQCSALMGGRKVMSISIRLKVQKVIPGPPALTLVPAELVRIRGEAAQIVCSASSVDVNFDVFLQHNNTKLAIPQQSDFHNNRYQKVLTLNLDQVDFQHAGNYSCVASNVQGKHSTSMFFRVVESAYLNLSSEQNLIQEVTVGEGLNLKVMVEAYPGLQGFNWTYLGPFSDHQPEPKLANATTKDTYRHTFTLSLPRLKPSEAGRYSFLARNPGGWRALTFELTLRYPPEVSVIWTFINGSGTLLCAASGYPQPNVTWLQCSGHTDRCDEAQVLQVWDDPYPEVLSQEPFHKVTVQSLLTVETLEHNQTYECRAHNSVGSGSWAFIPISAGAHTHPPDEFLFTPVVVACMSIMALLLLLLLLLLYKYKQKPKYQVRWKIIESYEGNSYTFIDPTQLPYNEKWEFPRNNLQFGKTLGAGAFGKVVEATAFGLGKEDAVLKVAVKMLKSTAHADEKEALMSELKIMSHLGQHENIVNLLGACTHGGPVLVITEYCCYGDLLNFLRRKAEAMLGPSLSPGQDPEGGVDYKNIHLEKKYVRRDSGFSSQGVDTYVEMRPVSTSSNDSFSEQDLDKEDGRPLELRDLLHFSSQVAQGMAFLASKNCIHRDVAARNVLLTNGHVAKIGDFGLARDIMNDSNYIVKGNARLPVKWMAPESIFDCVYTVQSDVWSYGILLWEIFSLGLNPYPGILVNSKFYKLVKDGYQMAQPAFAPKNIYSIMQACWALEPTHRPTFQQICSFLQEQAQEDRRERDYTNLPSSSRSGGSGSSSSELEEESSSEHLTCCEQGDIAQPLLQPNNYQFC
Leukocyte tyrosine kinase receptor (Homo sapiens), sequence (P29376 whole entry, looked up): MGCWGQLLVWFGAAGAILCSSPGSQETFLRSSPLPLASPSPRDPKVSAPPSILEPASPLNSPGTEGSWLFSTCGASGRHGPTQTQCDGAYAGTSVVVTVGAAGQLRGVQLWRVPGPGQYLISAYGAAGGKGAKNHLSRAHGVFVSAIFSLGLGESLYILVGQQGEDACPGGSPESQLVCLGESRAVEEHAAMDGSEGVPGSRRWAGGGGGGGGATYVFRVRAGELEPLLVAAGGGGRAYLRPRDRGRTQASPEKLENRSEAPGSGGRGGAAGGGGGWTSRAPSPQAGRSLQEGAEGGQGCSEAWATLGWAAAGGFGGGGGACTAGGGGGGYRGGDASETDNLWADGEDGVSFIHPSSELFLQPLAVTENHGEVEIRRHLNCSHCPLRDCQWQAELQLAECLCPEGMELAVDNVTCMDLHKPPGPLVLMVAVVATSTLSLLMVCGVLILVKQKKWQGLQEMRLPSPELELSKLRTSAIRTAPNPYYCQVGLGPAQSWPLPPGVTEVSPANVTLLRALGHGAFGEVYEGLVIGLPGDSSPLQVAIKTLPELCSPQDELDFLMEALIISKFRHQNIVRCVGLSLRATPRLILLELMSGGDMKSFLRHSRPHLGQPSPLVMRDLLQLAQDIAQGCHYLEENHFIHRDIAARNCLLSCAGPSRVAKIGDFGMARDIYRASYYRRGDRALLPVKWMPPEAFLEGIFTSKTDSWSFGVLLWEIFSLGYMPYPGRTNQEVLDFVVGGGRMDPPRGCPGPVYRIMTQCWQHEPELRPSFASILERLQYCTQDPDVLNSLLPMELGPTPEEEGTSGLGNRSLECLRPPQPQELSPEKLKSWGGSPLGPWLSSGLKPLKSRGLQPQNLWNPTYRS

- percent of control binding (ACVR1B): 84% (inactive)
- percent of control binding (ACVR2B): 100% (inactive)
- percent of control binding [1]: 100% (inactive)
- percent of control binding [2]: 95% (inactive)
- percent of control binding (DCAMKL2): 89% (inactive)
- percent of control binding (DDR2): 65% (inactive)
- percent of control binding (DRAK2): 100% (inactive)
- percent of control binding (EPHA1): 100% (inactive)
- percent of control binding (EPHA3): 84% (inactive)
- percent of control binding (EPHA5): 87% (inactive)
- percent of control binding [3]: 92% (inactive)
- percent of control binding [4]: 81% (inactive)
- percent of control binding [5]: 100% (inactive)
- percent of control binding (MERTK): 100% (inactive)
- percent of control binding (MLK3): 99% (inactive)
- percent of control binding (MRCKB): 100% (inactive)
- percent of control binding [6]: 72% (inactive)
- percent of control binding [7]: 92% (inactive)
- percent of control binding ([7]; KIT(D816V)): 90% (inactive)
- percent of control binding ([7]; KIT(V559D)): 95% (inactive)
- percent of control binding ([7]; KIT(V559D,T670I)): 94% (inactive)
- percent of control binding ([7]; KIT(V559D,V654A)): 92% (inactive)
- percent of control binding [8]: 93% (inactive)
- percent of control binding [9]: 66% (inactive)
- percent of control binding [10]: 83% (inactive)
- percent of control binding [11]: 100% (inactive)
- percent of control binding (PRKR): 98% (inactive)
- percent of control binding (RIPK1): 100% (inactive)
- percent of control binding (RIPK2): 83% (inactive)
- percent of control binding [12]: 59% (inactive)
- percent of control binding ([13]; RPS6KA5(Kin.Dom.1)): 100% (inactive)
- percent of control binding ([13]; RPS6KA5(Kin.Dom.2)): 100% (inactive)
- percent of control binding [14]: 100% (inactive)
- percent of control binding [15]: 79% (inactive)
- percent of control binding [16]: 100% (inactive)
- percent of control binding (TESK1): 89% (inactive)
- percent of control binding (TNNI3K): 82% (inactive)
- percent of control binding [17]: 100% (inactive)
Structure (SMILES): Cc1cc2nc(NCCCO)n(CC(=O)c3cc(C(C)(C)C)c(O)c(C(C)(C)C)c3)c2cc1C
